In patent publication US20190125646A1, “ORAL COMPOSITION FOR TOOTH WHITENING PRODUCT, AND KIT COMPRISING SAME” (LG HOUSEHOLD & HEALTH CARE LTD., priority 2013, published 2019):
“Also recorded” adds a separate entry of the source.

Legend:
[1] = Survey evaluation related to irritation (Experimental Example 3); assay type: in vivo; details: subjects' own evaluation after use, score 0-3; FIG. 3
Source text: After using comparative example 2 and examples 1 and 2, each subject was allowed to evaluate the degree of irritation on a 3-point scale according to the following evaluation criteria.
2: Certainly sensible irritation.
3: Stop using due to irritation

[2] = Brightness variation (Experimental Example 4); details: gel first agent plus hydrogen peroxide 3.0% patch on stained HAP disk, removed after 1 hour; FIG. 4
Protocol: Comparative examples 3 through 8 and example 5 were each attached to a stained HAP disk and were removed after 1 hour, and variations relative to initial brightness were measured and were indicated as ΔL.

| Molecule | degree of irritation (survey, 3-point scale) [1] | whitening effect (variation relative to initial brightness, ΔL) [2] |
| --- | --- | --- |
| NCCS(=O)(=O)O [taurine] | significantly reduced | – |
| iron chloride | more severe | highest tooth whitening effect; also recorded: remarkably superior effect than other metal ions |
